Data as given in patent publication US20240307338A1, “USE OF PHARMACEUTICAL COMPOSITION CONTAINING CHLOROGENIC ACID IN PREPARATION OF MEDICAMENT FOR TREATING PATHOLOGIC JAUNDICE” (SICHUAN JIUZHANG BIOLOGICAL SCIENCE AND TECHNOLOGY CO., LTD., priority 2021, published 2024).

Key:
Format in all cases: in vivo, SD rats
[1] = system: rat model of hemolytic jaundice (acetylphenylhydrazine-induced); test: Activity assay of α-GST, ALT and AST in serum of rats with APH-induced hemolytic jaundice
Protocol: (§1) Clean adult male SD rats, weighing 200 g-250 g. The following experiment was carried out mainly by referring to the method described in CN104739818A. In short, in the example, acetylphenylhydrazine (APH) was used as a modeling drug to construct a rat model of hemolytic jaundice, which was also a commonly used model for studying neonatal hemolytic jaundice at home and abroad. The most prominent feature of hemolytic jaundice was the collapse of the patient's red blood cells, causing hemolysis. […] At the same time, due to the rupture of red blood cells and the release of bilirubin, liver function was damaged. The mechanism and symptoms simulated by APH were similar to those of hemolytic jaundice. From 60 healthy SD rats with required body weight, 10 rats were randomly selected as the normal control group, and the remaining 50 rats were intraperitoneally injected with acetylphenylhydrazine (APH) at a dose of 150 mg/kg for 3 consecutive days, to construct the animal model of hemolytic jaundice induced by oxidation of red blood cells. […] 50 rats successfully modeled were randomly divided into 5 groups, 10 rats for each group, and the groups were respectively named as: model control group (n=10), CGA group (n=10), bifidobacteria+HMO group (n=10), CGA+bifidobacteria+HMO low-dose group (n=10), CGA+bifidobacteria+HMO high-dose group (n=10), together with the normal control group (n=10), a total of 6 experimental groups, including 60 rats. In the experiment, rats in each group were administered by gavage, while the blank group and the model group were given the solvent physiological saline by gavage. The administration time is 6 days. The composition and dosage of therapeutic drugs for each group were as follows: • (1) CGA group: CGA 60 mg/kg/day, administered by gavage with physiological saline as solvent. • (2) bifidobacteria+HMO group: Bifidobacterium brevis M16-V (6 mg/kg/day), lacto-N-neotetraose (3 mg/kg/day), and 6′-sialyllactose (3 mg/kg/day). The mixture of the above components was prepared according to the weight ratio, and using physiological saline as the solvent, the solution of the mixture was administered by gavage. • (3) CGA+bifidobacteria+HMO low-dose group: CGA (60 mg/kg/day), Bifidobacterium brevis M16-V (6 mg/kg/day), lacto-N-neotetraose (3 mg/kg/day), and 6′-sialyllactose (3 mg/kg/day). […] In this example, the activity of ALT (alanine aminotransferase) and AST (aspartate aminotransferase) was determined by rate method, while α-GST was detected using α-GST (α-glutathione s-transferase) detection kit; • (2) The blood sample stored in step (1) was taken out, and then bilirubin and direct bilirubin were detected by using the total bilirubin detection kit and the direct bilirubin detection kit.

[2] = system: rat model of hemolytic jaundice (acetylphenylhydrazine-induced); test: Detection of glutathione (GSH) by ELISA in rats with APH-induced hemolytic jaundice; conditions: after 6 days of treatment, in words, compared with the model control group (data not shown)
Protocol: Clean adult male SD rats, weighing 200 g-250 g. The following experiment was carried out mainly by referring to the method described in CN104739818A. In short, in the example, acetylphenylhydrazine (APH) was used as a modeling drug to construct a rat model of hemolytic jaundice, which was also a commonly used model for studying neonatal hemolytic jaundice at home and abroad. The most prominent feature of hemolytic jaundice was the collapse of the patient's red blood cells, causing hemolysis. […] At the same time, due to the rupture of red blood cells and the release of bilirubin, liver function was damaged. The mechanism and symptoms simulated by APH were similar to those of hemolytic jaundice. From 60 healthy SD rats with required body weight, 10 rats were randomly selected as the normal control group, and the remaining 50 rats were intraperitoneally injected with acetylphenylhydrazine (APH) at a dose of 150 mg/kg for 3 consecutive days, to construct the animal model of hemolytic jaundice induced by oxidation of red blood cells. […] In order to explore the mechanism for the possible therapeutic effect of CGA, the GSH level of rats in each group was detected in this example. […]

[3] = system: rat model of hemolytic jaundice (acetylphenylhydrazine-induced); test: Determination of total, direct and indirect bilirubin in rats with APH-induced hemolytic jaundice
Protocol: as §1

[4] = after 6 days of treatment, in words, compared with the model control group
[5] = serum, after 6 days of gavage, APH model rats, mean ± SD, n=10
[6] = after 6 days of gavage, APH model rats, mean ± SD, n=10

O=C(/C=C/c1ccc(O)c(O)c1)O[C@@H]1C[C@](O)(C(=O)O)C[C@@H](O)[C@H]1O [CGA, 3-O-caffeoylquinic acid]
levels of α-GST, ALT, and AST in serum [1, 4]: significantly decreased
ALT [1, 5]: 26.5 ± 3.8 U/L
AST [1, 5]: 29.8 ± 5.1 U/L
α-GST [1, 5]: 20.9 ± 4.2
content of GSH in serum [2]: increased significantly
Direct bilirubin [3, 6]: 1.86 ± 0.85 µmol/L
Indirect bilirubin [3, 6]: 1.51 µmol/L
Total bilirubin [3, 6]: 3.37 ± 0.93 µmol/L
levels of direct bilirubin, indirect bilirubin and total bilirubin [3, 4]: significantly decreased
